# Test results: patent US9340513B2, “Propenoate derivatives of betulin” (GlaxoSmithKline LLC, priority 2011, dated 2016)
# Test system: HIV-1 (strain IIIB)
# Assay: MT4 Cell Antiviral Assay
# Type: cell-based
# Conditions: Human immunodeficiency virus 1, 120 h; HIV-1 strain IIIB in MT4 cells, 5 days, Cell Titer-Glo; 50% decrease in HIV-induced cytopathic effect
# Description: Antiviral HIV activity and compound-induced cytotoxicity were measured in parallel based on a modified protocol of the propidium iodide based procedure in the human T-cell lymphotropic virus transformed cell line MT4. Aliquots of the test compounds were serially diluted in DMSO plated in 96-well plates. Exponentially growing MT4 cells were harvested and pelleted. Cell pellets were resuspended in fresh medium (RPMI 1640, 10% FCS, and gentamycin. Cell aliquots were infected by the addition of HIV-1 (strain IIIB) diluted to give a viral multiplicity of infection of 300×TCID50/million cells. A similar cell aliquot was diluted with medium to provide a mock-infected control. Cell infection was allowed to proceed for 1 hr at 37° C. in a tissue culture incubator with humidified 5% CO2 atmosphere. After the 1 hr incubation the virus/cell suspensions were diluted with fresh medium, and added to each well of the plate containing pre-diluted compound. Plates were then placed in a tissue culture incubator with humidified 5% CO2 for 5 days. […] The plates were analyzed in an automated plate reader for luminescence.assay. The control and standard used was efavirinz tested over a concentration range of 0.001 to 1 μM in every assay. The expected range of IC50 values for efavirinz is 0.1 to 1 nM.
# The antiviral effect of a test compound is reported as an IC50, i.e. the inhibitory concentration that would produce a 50% decrease in the HIV-induced cytopathic effect. This effect is measured by the amount of test compound required to restore 50% of the cell growth of HIV-infected MT4 cells, compared to uninfected MT4 cell controls. IC50 was calculated by RoboSage, Automated Curve Fitting Program.
# For each assay plate, the results (of wells containing uninfected cells or infected cells with no compound were averaged, respectively. For measurements of compound-induced cytotoxicty, results from wells containing various compound concentrations and uninfected cells were compared to the average of uninfected cells without compound treatment. Percent of cells remaining is determined by the following formula: Percent of cells remaining=(compound-treated uninfected cells/untreated uninfected cells)×100.
# A level of percent of cells remaining of 79% or less indicates a significant level of direct compound-induced cytotoxicity for the compound at that concentration. When this condition occurs the results from the compound-treated infected wells at this concentration are not included in the calculation of IC50.
# For measurements of compound antiviral activity, results from wells containing various compound concentrations and infected cells are compared to the average of uninfected and infected cells without compound treatment. Percent inhibition of virus is determined by the following formula: Percent inhibition of virus=(1−((ave. untreated uninfected cells−treated infected cells)/(ave. untreated uninfected cells−ave. untreated infected cells)))×100
row,Compound,IC50 [nM]
1,"CC(C)C1=C2[C@H]3CC[C@@H]4[C@@]5(C)CC[C@H](OC(=O)CC(C)(C)C(=O)O)C(C)(C)[C@@H]5CC[C@@]4(C)[C@]3(C)CC[C@@]2(/C=C/C(=O)NC2(c3ncccn3)CC2)CC1=O [Example 13, 4-(((3aS,5aR,5bR,7aR,9S,11aR,11bR,13aS)-1-isopropyl-5a,5b,8,8,11a-pentamethyl-2-oxo-3a-((E)-3-oxo-3-((1-(pyrimidin-2-yl)cyclopropyl)amino)prop-1-en-1-yl)-3,3a,4,5,5a,5b,6,7,7a,8,9,10,11,11a,11b,12,13,13a-octadecahydro-2H-cyclopenta[a]chrysen-9-yl)oxy)-2,2-dimethyl-4-oxobutanoic acid]",10 to 250
2,"CC(C)C1=C2[C@H]3CC[C@@H]4[C@@]5(C)CC[C@H](OC(=O)CC(C)(C)C(=O)O)C(C)(C)[C@@H]5CC[C@@]4(C)[C@]3(C)CC[C@@]2(/C=C/C(=O)N[C@H](C)c2ccccn2)CC1=O [Example 14, 4-(((3aS,5aR,5bR,7aR,9S,11aR,11bR,13aS)-1-Isopropyl-5a,5b,8,8,11a-pentamethyl-2-oxo-3a-((E)-3-oxo-3-(((R)-1-(pyridin-2-yl)ethyl)amino)prop-1-en-1-yl)-3,3a,4,5,5a,5b,6,7,7a,8,9,10,11,11a,11b,12,13,13a-octadecahydro-2H-cyclopenta[a]chrysen-9-yl)oxy)-2,2-dimethyl-4-oxobutanoic acid]",10 to 250
3,"CC(C)C1=C2[C@H]3CC[C@@H]4[C@@]5(C)CC[C@H](OC(=O)CC(C)(C)C(=O)O)C(C)(C)[C@@H]5CC[C@@]4(C)[C@]3(C)CC[C@@]2(/C=C/C(=O)N[C@@H](C)c2ccccn2)CC1=O [Example 15, 4-(((3aS,5aR,5bR,7aR,9S,11aR,11bR,13aS)-1-Isopropyl-5a,5b,8,8,11a-pentamethyl-2-oxo-3a-((E)-3-oxo-3-(((S)-1-(pyridin-2-yl)ethyl)amino)prop-1-en-1-yl)-3,3a,4,5,5a,5b,6,7,7a,8,9,10,11,11a,11b,12,13,13a-octadecahydro-2H-cyclopenta[a]chrysen-9-yl)oxy)-2,2-dimethyl-4-oxobutanoic acid]",10 to 250
4,"CC(C)C1=C2[C@H]3CC[C@@H]4[C@@]5(C)CC[C@H](OC(=O)CC(C)(C)C(=O)O)C(C)(C)[C@@H]5CC[C@@]4(C)[C@]3(C)CC[C@@]2(/C=C/C(=O)O)CC1=O [Example 16, 4-(((3aS,5aR,5bR,7aR,9S,11aR,11bR,13aS)-3a-((E)-2-Carboxyvinyl)-1-isopropyl-5a,5b,8,8,11a-pentamethyl-2-oxo-3,3a,4,5,5a,5b,6,7,7a,8,9,10,11,11a,11b,12,13,13a-octadecahydro-2H-cyclopenta[a]chrysen-9-yl)oxy)-2,2-dimethyl-4-oxobutanoic acid]",250 to 10000
5,"CC(C)C1=C2[C@H]3CC[C@@H]4[C@@]5(C)CC[C@H](OC(=O)CC(C)(C)C(=O)O)C(C)(C)[C@@H]5CC[C@@]4(C)[C@]3(C)CC[C@@]2(/C=C/C(=O)Nc2ccc(F)cc2)CC1=O [Example 17, 4-(((3aS,5aR,5bR,7aR,9S,11aR,11bR,13aS)-3a-((E)-3-((4-Fluorophenyl)amino)-3-oxoprop-1-en-1-yl)-1-isopropyl-5a,5b,8,8,11a-pentamethyl-2-oxo-3,3a,4,5,5a,5b,6,7,7a,8,9,10,11,11a,11b,12,13,13a-octadecahydro-2H-cyclopenta[a]chrysen-9-yl)oxy)-2,2-dimethyl-4-oxobutanoic acid]",10 to 250
6,"CC(C)C1=C2[C@H]3CC[C@@H]4[C@@]5(C)CC[C@H](OC(=O)CC(C)(C)C(=O)O)C(C)(C)[C@@H]5CC[C@@]4(C)[C@]3(C)CC[C@@]2(/C=C/C(=O)Nc2ccc(Cl)cn2)CC1=O [Example 18, 4-(((3aS,5aR,5bR,7aR,9S,11aR,11bR,13aS)-3a-((E)-3-((5-Chloropyridin-2-yl)amino)-3-oxoprop-1-en-1-yl)-1-isopropyl-5a,5b,8,8,11a-pentamethyl-2-oxo-3,3a,4,5,5a,5b,6,7,7a,8,9,10,11,11a,11b,12,13,13a-octadecahydro-2H-cyclopenta[a]chrysen-9-yl)oxy)-2,2-dimethyl-4-oxobutanoic acid]",10 to 250
